Laboratory results from publication PMC8137473, “Preclinical trial of a MAP4K4 inhibitor to reduce infarct size in the pig: does cardioprotection in human stem cell-derived myocytes predict success in large mammals?” (Basic Research in Cardiology, 2021).

System: swine
Test: pilot physiological study in healthy, chronically instrumented swine
Format: in vivo
Details: for LV dP/dtmin: in mmHg/s (unit assumed)
Method: Pilot physiological studies were performed in 2 female swine (45 and 85 kg), to confirm the lack of adverse effects from DMX-10001 in healthy myocardium. Animals were chronically instrumented as detailed below. Following a recovery week, animals received the pro-drug DMX-10001, while hemodynamics were recorded. Based on prior pharmacokinetic studies and modeling (Fig. 1b), two different dosing regimens were investigated, a three-step infusion (41 mg/kg/h, 0.5 h + 15.3 mg/kg/h, 2.5 h + 9.8 mg/kg/h, 5 h) versus a logistically simpler two-step approach (60 mg/kg/h, 0.5 h + 17 mg/kg/h, 23.5 h). During infusion of the pro-drug, blood was sampled to measure production of the active form, DMX-5804, by liquid chromatography–mass spectometry (Pharmidex, London, UK) as described.
A chronically instrumented animal received DMX-10001 for 8 h as shown, with a rapid initial infusion then stepwise decreasing concentrations over time. […] HR, heart rate; MAP, mean arterial pressure; CO, cardiac output; SV, stroke volume; SVR, systemic vascular resistance; dP/dtmax, maximal rate of rise in LV pressure; dP/dtmin, maximal rate of fall in LV pressure.
A chronically instrumented animal received DMX-10001 for 24 h as shown, starting with rapid infusion for half an hour then a lower concentration. […] HR, heart rate; MAP, mean arterial pressure; CO, cardiac output; SV, stroke volume; SVR, systemic vascular resistance; dP/dtmax, maximal rate of rise in LV pressure; dP/dtmin, maximal rate of fall in LV pressure.

[1] = animal 1, three-step infusion, 2 min
[2] = animal 1, three-step infusion, 10 min
[3] = animal 1, three-step infusion, 40 min
[4] = animal 1, three-step infusion, 1h
[5] = animal 1, three-step infusion, 2h
[6] = animal 1, three-step infusion, 3h
[7] = animal 1, three-step infusion, 4h
[8] = animal 1, three-step infusion, 6h
[9] = animal 1, three-step infusion, 8h
[10] = animal 1, three-step infusion, 8h 2 min
[11] = animal 1, three-step infusion, 8h 10 min
[12] = animal 1, three-step infusion, 8h 30 min
[13] = animal 1, three-step infusion, Baseline
[14] = animal 2, two-step infusion, 2 min
[15] = animal 2, two-step infusion, 10min
[16] = animal 2, two-step infusion, 30 min
[17] = animal 2, two-step infusion, 40 min
[18] = animal 2, two-step infusion, 2h
[19] = animal 2, two-step infusion, 24h
[20] = animal 2, two-step infusion, 24h 2 min
[21] = animal 2, two-step infusion, 24h 10 min
[22] = animal 2, two-step infusion, 24h 30 min
[23] = animal 2, two-step infusion, 25h
[24] = animal 2, two-step infusion, Baseline

Which results are given for `COCCOc1ccc(-c2cn(-c3ccccc3)c3ncn(COP(=O)(O)O)c(=O)c23)cc1` [DMX-10001]?
CO [1]: 11.2 L/min; HR [1]: 116 bpm; LV dP/dtmax [1]: 4070 mmHg/s; MAP [1]: 96 mmHg; SV [1]: 97 mL; SVR [1]: 8.6 mmHg/L/min; LV dP/dtmin [1]: -2280; CO [2]: 11.1 L/min; HR [2]: 112 bpm; LV dP/dtmax [2]: 3290 mmHg/s; MAP [2]: 88 mmHg; SV [2]: 99 mL; SVR [2]: 7.9 mmHg/L/min; LV dP/dtmin [2]: -2280; CO [3]: 10.1 L/min; HR [3]: 105 bpm; LV dP/dtmax [3]: 4060 mmHg/s; MAP [3]: 99 mmHg; SV [3]: 96 mL; SVR [3]: 9.8 mmHg/L/min; LV dP/dtmin [3]: -2530; CO [4]: 10.7 L/min; HR [4]: 115 bpm; LV dP/dtmax [4]: 4040 mmHg/s; MAP [4]: 103 mmHg; SV [4]: 93 mL; SVR [4]: 9.7 mmHg/L/min; LV dP/dtmin [4]: -2690; CO [5]: 11.4 L/min; HR [5]: 106 bpm; LV dP/dtmax [5]: 4840 mmHg/s; MAP [5]: 107 mmHg; SV [5]: 108 mL; SVR [5]: 9.4 mmHg/L/min; LV dP/dtmin [5]: -3270; CO [6]: 13.0 L/min; HR [6]: 120 bpm; LV dP/dtmax [6]: 6030 mmHg/s; MAP [6]: 117 mmHg; SV [6]: 108 mL; SVR [6]: 9.0 mmHg/L/min; LV dP/dtmin [6]: -3330; CO [7]: 12.0 L/min; HR [7]: 113 bpm; LV dP/dtmax [7]: 5260 mmHg/s; MAP [7]: 120 mmHg; SV [7]: 106 mL; SVR [7]: 10 mmHg/L/min; LV dP/dtmin [7]: -3020; CO [8]: 12.9 L/min; HR [8]: 134 bpm; LV dP/dtmax [8]: 5430 mmHg/s; MAP [8]: 105 mmHg; SV [8]: 96 mL; SVR [8]: 8.2 mmHg/L/min; LV dP/dtmin [8]: -2830; CO [9]: 11.8 L/min; HR [9]: 111 bpm; LV dP/dtmax [9]: 5020 mmHg/s; MAP [9]: 95 mmHg; SV [9]: 106 mL; SVR [9]: 8.0 mmHg/L/min; CO [10]: 11.1 L/min; HR [10]: 105 bpm; LV dP/dtmax [10]: 4550 mmHg/s; MAP [10]: 92 mmHg; SV [10]: 106 mL; SVR [10]: 8.3 mmHg/L/min; LV dP/dtmin [10]: -2820; CO [11]: 11.4 L/min; HR [11]: 105 bpm; LV dP/dtmax [11]: 4730 mmHg/s; MAP [11]: 102 mmHg; SV [11]: 109 mL; SVR [11]: 8.9 mmHg/L/min; LV dP/dtmin [11]: -3300; CO [12]: 14.3 L/min; HR [12]: 127 bpm; LV dP/dtmax [12]: 5740 mmHg/s; MAP [12]: 101 mmHg; SV [12]: 113 mL; SVR [12]: 7.1 mmHg/L/min; LV dP/dtmin [12]: -3190; LV dP/dtmin [9]: -2920; CO [13]: 11.1 L/min; HR [13]: 117 bpm; LV dP/dtmax [13]: 3470 mmHg/s; MAP [13]: 94 mmHg; SV [13]: 95 mL; SVR [13]: 8.5 mmHg/L/min; LV dP/dtmin [13]: -2500; CO [14]: 9.7 L/min; HR [14]: 116 bpm; LV dP/dtmax [14]: 5860 mmHg/s; MAP [14]: 80 mmHg; SV [14]: 84 mL; SVR [14]: 8.2 mmHg/L/min; LV dP/dtmin [14]: -4170; CO [15]: 6.9 L/min; HR [15]: 90 bpm; LV dP/dtmax [15]: 3400 mmHg/s; MAP [15]: 83 mmHg; SV [15]: 76 mL; SVR [15]: 12.1 mmHg/L/min; LV dP/dtmin [15]: -3670; CO [16]: 6.7 L/min; HR [16]: 92 bpm; LV dP/dtmax [16]: 3420 mmHg/s; MAP [16]: 84 mmHg; SV [16]: 72 mL; SVR [16]: 12.7 mmHg/L/min; LV dP/dtmin [16]: -3430; CO [17]: 6.1 L/min; HR [17]: 83 bpm; LV dP/dtmax [17]: 3680 mmHg/s; MAP [17]: 90 mmHg; SV [17]: 73 mL; SVR [17]: 14.8 mmHg/L/min; LV dP/dtmin [17]: -3640; CO [18]: 7.2 L/min; HR [18]: 91 bpm; LV dP/dtmax [18]: 4250 mmHg/s; MAP [18]: 94 mmHg; SV [18]: 79 mL; SVR [18]: 13.1 mmHg/L/min; LV dP/dtmin [18]: -4120; CO [19]: 8.7 L/min; HR [19]: 107 bpm; LV dP/dtmax [19]: 4260 mmHg/s; MAP [19]: 89 mmHg; SV [19]: 82 mL; SVR [19]: 10.2 mmHg/L/min; CO [20]: 9.1 L/min; HR [20]: 111 bpm; LV dP/dtmax [20]: 5090 mmHg/s; MAP [20]: 72 mmHg; SV [20]: 82 mL; SVR [20]: 7.9 mmHg/L/min; LV dP/dtmin [20]: -3740; CO [21]: 7.0 L/min; HR [21]: 87 bpm; LV dP/dtmax [21]: 3950 mmHg/s; MAP [21]: 97 mmHg; SV [21]: 80 mL; SVR [21]: 13.9 mmHg/L/min; LV dP/dtmin [21]: -4120; CO [22]: 7.7 L/min; HR [22]: 92 bpm; LV dP/dtmax [22]: 4810 mmHg/s; MAP [22]: 144 mmHg; SV [22]: 83 mL; SVR [22]: 18.9 mmHg/L/min; LV dP/dtmin [22]: -4140; LV dP/dtmin [19]: -3380; CO [23]: 9.1 L/min; HR [23]: 115 bpm; LV dP/dtmax [23]: 5360 mmHg/s; MAP [23]: 153 mmHg; SV [23]: 79 mL; SVR [23]: 16.8 mmHg/L/min; LV dP/dtmin [23]: -4460; CO [24]: 7.8 L/min; HR [24]: 101 bpm; LV dP/dtmax [24]: 3800 mmHg/s; MAP [24]: 77 mmHg; SV [24]: 77 mL; SVR [24]: 10.0 mmHg/L/min; LV dP/dtmin [24]: -3040; adverse effect on hemodynamics or LV function (pilot studies of two healthy animals): No adverse effect
